Patent US12077503B2, “Substituted cyclic amides and their use as herbicides” (FMC CORPORATION, priority 2015, dated 2024)

Experiments:
Format in all cases: in vivo
[1] = test system: ragweed (common ragweed, Ambrosia elatior); experiment: Test A preemergence; conditions: Ambrosia artemisiifolia, pre-emergence, 240 h, Preemergence; for pest or weed control at 31 g/ha: 31 g ai/ha, 0 to 100 scale where 0 is no effect and 100 is complete control, read-out: Ragweed plant response rating; for pest or weed control at 125 g/ha: 125 g ai/ha, 0 to 100 scale (0 no effect, 100 complete control), read-out: Plant response rating, Ragweed
Procedure, shortened: (§1)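 Visual injury, scored on a 0–100 scale relative to untreated controls, was recorded about 10 d after application. Treatments were a preemergence soil spray over planted seeds or a postemergence spray on plants at the one- to two-leaf stage, 2 to 10 cm tall, all in loam soil–sand blend in the greenhouse.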

[2] = test system: pigweed (Amaranthus retroflexus); experiment: Test A preemergence; conditions: Amaranthus retroflexus, pre-emergence, 240 h, Preemergence; for pest or weed control at 31 g/ha: 31 g ai/ha, 0 to 100 scale where 0 is no effect and 100 is complete control, read-out: Pigweed plant response rating; for pest or weed control at 125 g/ha: 125 g ai/ha, 0 to 100 scale (0 no effect, 100 complete control), read-out: Plant response rating, Pigweed
[3] = test system: Kochia (Kochia scoparia); experiment: Test A preemergence; conditions: Bassia scoparia, pre-emergence, 240 h, Preemergence; for pest or weed control at 31 g/ha: 31 g ai/ha, 0 to 100 scale where 0 is no effect and 100 is complete control, read-out: Kochia plant response rating; for pest or weed control at 125 g/ha: 125 g ai/ha, 0 to 100 scale (0 no effect, 100 complete control), read-out: Plant response rating, Kochia
Procedure, shortened: as §1

[4] = test system: ryegrass, Italian (Italian ryegrass, Lolium multiflorum); experiment: Test A preemergence; conditions: Lolium multiflorum, pre-emergence, 240 h, Preemergence; for pest or weed control at 31 g/ha: 31 g ai/ha, 0 to 100 scale where 0 is no effect and 100 is complete control, read-out: Ryegrass, Italian plant response rating; for pest or weed control at 125 g/ha: 125 g ai/ha, 0 to 100 scale (0 no effect, 100 complete control), read-out: Plant response rating, Ryegrass, Italian
Procedure, shortened: as §1

[5] = test system: giant foxtail (Setaria faberii); experiment: Test A preemergence; conditions: Setaria faberi, pre-emergence, 240 h, Preemergence; for pest or weed control at 31 g/ha: 31 g ai/ha, 0 to 100 scale where 0 is no effect and 100 is complete control, read-out: Foxtail, Giant plant response rating; for pest or weed control at 125 g/ha: 125 g ai/ha, 0 to 100 scale (0 no effect, 100 complete control), read-out: Plant response rating, Foxtail, Giant
Procedure, shortened: as §1

[6] = test system: barnyardgrass (Echinochloa crus-galli); experiment: Test A preemergence; conditions: Echinochloa crus-galli, pre-emergence, 240 h, Preemergence; for pest or weed control at 31 g/ha: 31 g ai/ha, 0 to 100 scale where 0 is no effect and 100 is complete control, read-out: Barnyardgrass plant response rating; for pest or weed control at 125 g/ha: 125 g ai/ha, 0 to 100 scale (0 no effect, 100 complete control), read-out: Plant response rating, Barnyardgrass
Procedure, shortened: as §1

[7] = test system: rice (Oryra sativa); experiment: Test B flooded paddy test; conditions: Oryza sativa, 360 h, Flood, 250 g ai/ha; visually evaluated after 13 to 15 d; read-out: Plant response rating, Rice (0 to 100 scale where 0 is no effect and 100 is complete control)
Procedure, shortened: (§2)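 Percent control, visually estimated after 13–15 d in the greenhouse on a 0–100 basis, compares treated pots with untreated ones; compound was put into paddy water 3 cm above the soil when plants had two leaves.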

[8] = test system: ducksalad (Heteranthera limosa); experiment: Test B flooded paddy test; conditions: Heteranthera limosa, 360 h, Flood, 250 g ai/ha; visually evaluated after 13 to 15 d; read-out: Plant response rating, Ducksalad (0 to 100 scale where 0 is no effect and 100 is complete control)
Procedure, shortened: as §2

[9] = test system: sedge, umbrella (small-flower umbrella sedge, Cyperus difformis); experiment: Test B flooded paddy test; conditions: Cyperus difformis, 360 h, Flood, 250 g ai/ha; visually evaluated after 13 to 15 d; read-out: Plant response rating, Sedge, Umbrella (0 to 100 scale where 0 is no effect and 100 is complete control)
Procedure, shortened: as §2

[10] = test system: barnyardgrass (Echinochloa crus-galli); experiment: Test B flooded paddy test; conditions: Echinochloa crus-galli, 360 h, Flood, 250 g ai/ha; visually evaluated after 13 to 15 d; read-out: Plant response rating, Barnyardgrass (0 to 100 scale where 0 is no effect and 100 is complete control)
Procedure, shortened: as §2

[11] = test system: ragweed (common ragweed, Ambrosia elatior); experiment: Test A postemergence; conditions: Ambrosia artemisiifolia, post-emergence, 240 h, Postemergence; for pest or weed control at 31 g/ha: 31 g ai/ha, 0 is no effect, 100 is complete control, read-out: Ragweed plant response rating (0 to 100 scale); for pest or weed control at 125 g/ha: 125 g ai/ha, visual injury after approx. 10 d, 0 to 100 scale, 0 no effect, 100 complete control, read-out: Plant response rating, Ragweed
Procedure, shortened: as §1

[12] = test system: Galium (catchweed bedstraw, Galium aparine); experiment: Test A postemergence; conditions: Galium, post-emergence, 240 h, Postemergence; for pest or weed control at 31 g/ha: 31 g ai/ha, 0 is no effect, 100 is complete control, read-out: Galium plant response rating (0 to 100 scale); for pest or weed control at 125 g/ha: 125 g ai/ha, visual injury after approx. 10 d, 0 to 100 scale, 0 no effect, 100 complete control, read-out: Plant response rating, Galium
Procedure, shortened: as §1

[13] = test system: pigweed (Amaranthus retroflexus); experiment: Test A postemergence; conditions: Amaranthus retroflexus, post-emergence, 240 h, Postemergence; for pest or weed control at 31 g/ha: 31 g ai/ha, 0 is no effect, 100 is complete control, read-out: Pigweed plant response rating (0 to 100 scale); for pest or weed control at 125 g/ha: 125 g ai/ha, visual injury after approx. 10 d, 0 to 100 scale, 0 no effect, 100 complete control, read-out: Plant response rating, Pigweed
Procedure, shortened: as §1

[14] = test system: wheat (Triticum aestivum); experiment: Test A postemergence; conditions: Triticum aestivum, post-emergence, 240 h, Postemergence; for plant injury at 31 g/ha: 31 g ai/ha, 0 is no effect, 100 is complete control, read-out: Wheat plant response rating (0 to 100 scale); for plant injury at 125 g/ha: 125 g ai/ha, visual injury after approx. 10 d, 0 to 100 scale, 0 no effect, 100 complete control, read-out: Plant response rating, Wheat
Procedure, shortened: as §1

[15] = test system: Kochia (Kochia scoparia); experiment: Test A postemergence; conditions: Bassia scoparia, post-emergence, 240 h, Postemergence; for pest or weed control at 31 g/ha: 31 g ai/ha, 0 is no effect, 100 is complete control, read-out: Kochia plant response rating (0 to 100 scale); for pest or weed control at 125 g/ha: 125 g ai/ha, visual injury after approx. 10 d, 0 to 100 scale, 0 no effect, 100 complete control, read-out: Plant response rating, Kochia
Procedure, shortened: as §1

[16] = test system: ryegrass, Italian (Italian ryegrass, Lolium multiflorum); experiment: Test A postemergence; conditions: Lolium multiflorum, post-emergence, 240 h, Postemergence; for pest or weed control at 31 g/ha: 31 g ai/ha, 0 is no effect, 100 is complete control, read-out: Ryegrass, Italian plant response rating (0 to 100 scale); for pest or weed control at 125 g/ha: 125 g ai/ha, visual injury after approx. 10 d, 0 to 100 scale, 0 no effect, 100 complete control, read-out: Plant response rating, Ryegrass, Italian
Procedure, shortened: as §1

[17] = test system: corn (Zea mays); experiment: Test A postemergence; conditions: Zea mays, post-emergence, 240 h, Postemergence; for plant injury at 31 g/ha: 31 g ai/ha, 0 is no effect, 100 is complete control, read-out: Corn plant response rating (0 to 100 scale); for Corn plant response rating (crop injury, 0 = no effect, 100 = complete kill) at 125 g/ha: 125 g ai/ha, visual injury after approx. 10 d, 0 to 100 scale, 100 complete control
Procedure, shortened: as §1

[18] = test system: giant foxtail (Setaria faberii); experiment: Test A postemergence; conditions: Setaria faberi, post-emergence, 240 h, Postemergence; for pest or weed control at 31 g/ha: 31 g ai/ha, 0 is no effect, 100 is complete control, read-out: Foxtail, Giant plant response rating (0 to 100 scale); for pest or weed control at 125 g/ha: 125 g ai/ha, visual injury after approx. 10 d, 0 to 100 scale, 0 no effect, 100 complete control, read-out: Plant response rating, Foxtail, Giant
Procedure, shortened: as §1

[19] = test system: blackgrass (Alopecurus myosuroides); experiment: Test A postemergence; conditions: Alopecurus myosuroides, post-emergence, 240 h, Postemergence; for pest or weed control at 31 g/ha: 31 g ai/ha, 0 is no effect, 100 is complete control, read-out: Blackgrass plant response rating (0 to 100 scale); for pest or weed control at 125 g/ha: 125 g ai/ha, visual injury after approx. 10 d, 0 to 100 scale, 0 no effect, 100 complete control, read-out: Plant response rating, Blackgrass
Procedure, shortened: as §1

[20] = test system: barnyardgrass (Echinochloa crus-galli); experiment: Test A postemergence; conditions: Echinochloa crus-galli, post-emergence, 240 h, Postemergence; for pest or weed control at 31 g/ha: 31 g ai/ha, 0 is no effect, 100 is complete control, read-out: Barnyardgrass plant response rating (0 to 100 scale); for pest or weed control at 125 g/ha: 125 g ai/ha, visual injury after approx. 10 d, 0 to 100 scale, 0 no effect, 100 complete control, read-out: Plant response rating, Barnyardgrass
Procedure, shortened: as §1

| SMILES | pest or weed control at 31 g/ha [1] | pest or weed control at 125 g/ha [1] | pest or weed control at 31 g/ha [2] | pest or weed control at 125 g/ha [2] | pest or weed control at 31 g/ha [3] | pest or weed control at 125 g/ha [3] | pest or weed control at 31 g/ha [4] | pest or weed control at 125 g/ha [4] | pest or weed control at 31 g/ha [5] | pest or weed control at 125 g/ha [5] | pest or weed control at 31 g/ha [6] | pest or weed control at 125 g/ha [6] | pest or weed control at 250 g/ha [7] | pest or weed control at 250 g/ha [8] | pest or weed control at 250 g/ha [9] | pest or weed control at 250 g/ha [10] | pest or weed control at 31 g/ha [11] | pest or weed control at 125 g/ha [11] | pest or weed control at 31 g/ha [12] | pest or weed control at 125 g/ha [12] | also measured |
| --- | --- | --- | --- | --- | --- | --- | --- | --- | --- | --- | --- | --- | --- | --- | --- | --- | --- | --- | --- | --- | --- |
| CN1C[C@H](c2ccc(Br)cc2)[C@@H](C(=O)Nc2ccc(F)c(F)c2F)C1=O [Compound 1393] | 30% | 90% | 30% | 80% | 40% | 70% | 0% | 20% | 80% | 90% | 40% | 90% | 55% | 100% | 0% | 85% | 0% | 50% | 50% | 60% | pest or weed control at 31 g/ha [13]: 40%; pest or weed control at 125 g/ha [13]: 60%; plant injury at 31 g/ha [14]: 0%; plant injury at 125 g/ha [14]: 30%; pest or weed control at 31 g/ha [15]: 30%; pest or weed control at 125 g/ha [15]: 70%; pest or weed control at 31 g/ha [16]: 0%; pest or weed control at 125 g/ha [16]: 20%; plant injury at 31 g/ha [17]: 0%; Corn plant response rating (crop injury, 0 = no effect, 100 = complete kill) at 125 g/ha [17]: 80%; pest or weed control at 31 g/ha [18]: 70%; pest or weed control at 125 g/ha [18]: 90%; pest or weed control at 31 g/ha [19]: 20%; pest or weed control at 125 g/ha [19]: 30%; pest or weed control at 31 g/ha [20]: 70%; pest or weed control at 125 g/ha [20]: 90% |
| Cc1ccc([C@H]2CN(C)C(=O)[C@@H]2C(=O)Nc2cccnc2F)cc1 [Compound 1398] | 50% | 90% | 0% | 50% | 100% | 90% | 0% | 70% | 100% | 100% | 100% | 100% | 15% | 100% | 0% | 80% | 0% | 30% | 30% | 50% | pest or weed control at 31 g/ha [13]: 0%; pest or weed control at 125 g/ha [13]: 0%; plant injury at 31 g/ha [14]: 0%; plant injury at 125 g/ha [14]: 60%; pest or weed control at 31 g/ha [15]: 20%; pest or weed control at 125 g/ha [15]: 60%; pest or weed control at 31 g/ha [16]: 0%; pest or weed control at 125 g/ha [16]: 40%; plant injury at 31 g/ha [17]: 0%; Corn plant response rating (crop injury, 0 = no effect, 100 = complete kill) at 125 g/ha [17]: 40%; pest or weed control at 31 g/ha [18]: 90%; pest or weed control at 125 g/ha [18]: 90%; pest or weed control at 31 g/ha [19]: 20%; pest or weed control at 125 g/ha [19]: 60%; pest or weed control at 31 g/ha [20]: 90%; pest or weed control at 125 g/ha [20]: 100% |
